According to publication PMC9080521, “Molecular basis of rutin inhibition of protein disulfide isomerase (PDI) by combined in silico and experimental methods” (RSC Advances, 2018):
Values joined by “and” are separate entries in the source; they are usually repeats but may differ in a detail not shown here. Identical values can stand only once.

What was measured:
[1] = target: T1, MBP-PDI-b′xa′ H354A (Homo sapiens, UniProt P07237, H354A); experiment: Isothermal titration calorimetry (ITC); assay type: binding
T1 construct: MBP-PDI-b′xa′(235–479); His-tag; made in house; host or cells: E. coli BL21 (DE3)
Protocol: (§1) Microcalorimetry titration of rutin to PDI recombinant and mutant proteins used a MicroCal ITC200 microcalorimeter (GE Healthcare). PDI recombinant proteins, which concentration ranges from 25 μM to 50 μM, were added into the cell (about 300 μL). Rutin, with concentration ranging from 500 μM to 1 mM, was injected from syringe to titrate the protein in cell (almost 40 μL). The experiment was performed at 25 °C with a equilibration time of 10 min, the reference power was set to 6.25 μcal s^−1. The process including 25 injections, each of 1, 2 or 2.5 μL rutin, in a duration of 3 s, and the interval time between two injections was 180 s. Data was analyzed with MicroCal Origin (MicroCal).
(§2) Next, we resorted to a more sensitive method, isothermal titration calorimetry (ITC), to measure the direct binding. Due to the weak interaction, this method requires large amounts of high-purity protein samples (about 240 μL at 20–50 μM) to be titrated by the highest concentration of rutin (its water solubility of about 200 μM), so that the release of heat as a result of complex formation reached plateau phase rapidly and was enough to be measured. A problem we encountered is that the starting phase of the S-shape curve of heat measurement cannot always be resolved using the typical titration program of ITC, thus affecting the accuracy of dissociation constant (Kd) measurement from the S-shape ITC curve. This was due to the use of equal volume of small molecule titrant (∼2.5 μL) used in the typical ITC titration. Therefore, we established an optimized ITC titration scheme by using variable drop sizes, which started with small drops (1 μL at first ten times of injection) and ended with large drops (2 μL). We thus obtained S-shape ITC curves with well-defined upper and lower platforms (Fig. 5 and S6 ^†), which allowed the accurate measurements of Kd values.

[2] = target: T2, MBP-PDI-b′xa′ E359K (Homo sapiens, UniProt P07237, E359K); experiment: Isothermal titration calorimetry (ITC); assay type: binding; conditions: 25 °C
T2 construct: MBP-PDI-b′xa′(235–479); His-tag; made in house; host or cells: E. coli BL21 (DE3)
Protocol: as §1, §2

[3] = target: T3, MBP-PDI-b′xa′ K328E (Homo sapiens, UniProt P07237, K328E); experiment: Isothermal titration calorimetry (ITC); assay type: binding; conditions: 25 °C
T3 construct: MBP-PDI-b′xa′(235–479); His-tag; made in house; host or cells: E. coli BL21 (DE3)
Protocol: as §1, §2

[4] = target: T4, MBP-PDI-b′xa′ E359A (Homo sapiens, UniProt P07237, E359A); experiment: Isothermal titration calorimetry (ITC); assay type: binding; conditions: 25 °C
T4 construct: MBP-PDI-b′xa′(235–479); His-tag; made in house; host or cells: E. coli BL21 (DE3)
Protocol: as §1, §2

[5] = target: T5, wt MBP-PDI-b′xa′ (Homo sapiens, UniProt P07237); experiment: Isothermal titration calorimetry (ITC); assay type: binding; conditions: 25 °C
T5 construct: MBP-PDI-b′xa′(235–479); His-tag; made in house; host or cells: E. coli BL21 (DE3)
Protocol: as §1, §2

[6] = target: T6, MBP-PDI-b′xa′ L355R (Homo sapiens, UniProt P07237, L355R); experiment: Isothermal titration calorimetry (ITC); assay type: binding; conditions: 25 °C
T6 construct: MBP-PDI-b′xa′(235–479); His-tag; made in house; host or cells: E. coli BL21 (DE3)
Protocol: as §1, §2

[7] = target: T7, human MBP-PDI-b′x (Homo sapiens, UniProt P07237); experiment: Fluorescence-based direct binding assay; conditions: protein 18 μM, excitation 430 nm, emission 530 nm, n=3, Standard Error 0.16 μM; read-out: IC50 (binding affinity, fluorescence)
T7 construct: The human MBP-PDI-b′x (235–369); His-tag; made in house; host or cells: E. coli BL21 (DE3)
Protocol: (§3) 2. Binding affinity (IC50) of rutin to human or murine MBP-fused PDI proteins The MBP-fused PDI proteins (18 μМ) were incubated with a gradient of 10 rutin’s concentrations differed by 2- or 3-fold and 3 repetitions in 384-well black plate at room temperature for 30 min before measurements. The total assay volume was filled to 100 μL using the assay buffer (pH 7.4) contains 150 mM NaCl, 20 mM Tris, 1 mM EDTA, 1 mM β-ME and 5% glycerin. The fluorescence emission spectrum of the mixture were measured with the excitation at 430 nm and the emission at 530 nm at room temperature on a BioTek Synergy microplate reader with a sensitivity of 100. The data were analyzed by GraphPad Prism (Fig. S3).

[8] = target: T8, murine MBP-mPDI-b′x (Mus musculus, UniProt P09103); experiment: Fluorescence-based direct binding assay; conditions: protein 18 μM, excitation 430 nm, emission 530 nm, n=3, Standard Error 0.15 μM; read-out: IC50 (binding affinity, fluorescence)
T8 construct: The murine MBP-mPDI-b′x (236–369); His-tag; made in house; host or cells: E. coli BL21 (DE3)
Protocol: as §3

[9] = target: full-length human PDI (Homo sapiens, UniProt P07237); experiment: Fluorescence-based direct binding assay; conditions: protein 18 μM, excitation 430 nm, emission 530 nm, n=3, Standard Error 0.18 μM; read-out: IC50 (binding affinity, fluorescence)
Protocol: as §3

[10] = target: T9, human MBP-PDI-b′xa′ (Homo sapiens, UniProt P07237); experiment: Fluorescence-based direct binding assay; conditions: protein 18 μM, excitation 430 nm, emission 530 nm, n=3, Standard Error 0.14 μM; read-out: IC50 (binding affinity, fluorescence)
T9 construct: MBP-PDI-b′xa′(235–479); His-tag; made in house; host or cells: E. coli BL21 (DE3)
Protocol: as §3

[11] = target: T10, murine MBP-mPDI-b′xa′ (Mus musculus, UniProt P09103); experiment: Fluorescence-based direct binding assay; conditions: protein 18 μM, excitation 430 nm, emission 530 nm, n=3, Standard Error 0.15 μM; read-out: IC50 (binding affinity, fluorescence)
T10 construct: MBP-mPDI-b′xa′ (236–477); His-tag; made in house; host or cells: E. coli BL21 (DE3)
Protocol: as §3

[12] = test system: ERp72; parameters: method as in PMID 22565308; conditions: cited from earlier work
[13] = test system: PDI; parameters: method as in PMID 22565308, PMID 26240139; conditions: dose-dependent; cited from earlier work
[14] = test system: platelet aggregation and fibrin generation; conditions: cited from earlier work
[15] = mouse models, dose of 0.5 mg kg^−1

T4 sequence (P07237 235-479 E359A): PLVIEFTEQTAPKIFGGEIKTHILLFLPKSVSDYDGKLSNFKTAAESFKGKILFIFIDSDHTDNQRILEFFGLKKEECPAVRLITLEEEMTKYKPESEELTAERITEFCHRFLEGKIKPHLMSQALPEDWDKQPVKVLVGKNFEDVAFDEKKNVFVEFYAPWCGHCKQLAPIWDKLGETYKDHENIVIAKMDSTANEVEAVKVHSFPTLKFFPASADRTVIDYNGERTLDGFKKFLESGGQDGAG
T2 sequence (P07237 235-479 E359K): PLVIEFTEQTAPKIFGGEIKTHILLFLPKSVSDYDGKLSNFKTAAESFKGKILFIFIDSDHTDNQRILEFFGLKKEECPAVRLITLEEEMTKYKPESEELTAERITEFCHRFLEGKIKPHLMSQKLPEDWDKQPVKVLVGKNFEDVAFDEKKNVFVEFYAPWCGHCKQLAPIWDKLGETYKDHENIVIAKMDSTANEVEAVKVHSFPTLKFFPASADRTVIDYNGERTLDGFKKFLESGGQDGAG
T3 sequence (P07237 235-479 K328E): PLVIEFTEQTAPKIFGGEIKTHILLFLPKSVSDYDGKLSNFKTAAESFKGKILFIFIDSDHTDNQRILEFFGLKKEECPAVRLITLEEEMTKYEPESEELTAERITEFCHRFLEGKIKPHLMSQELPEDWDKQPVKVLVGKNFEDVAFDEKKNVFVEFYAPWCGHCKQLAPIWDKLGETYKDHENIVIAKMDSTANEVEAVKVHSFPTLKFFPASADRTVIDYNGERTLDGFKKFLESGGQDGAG
T1 sequence (P07237 235-479 H354A): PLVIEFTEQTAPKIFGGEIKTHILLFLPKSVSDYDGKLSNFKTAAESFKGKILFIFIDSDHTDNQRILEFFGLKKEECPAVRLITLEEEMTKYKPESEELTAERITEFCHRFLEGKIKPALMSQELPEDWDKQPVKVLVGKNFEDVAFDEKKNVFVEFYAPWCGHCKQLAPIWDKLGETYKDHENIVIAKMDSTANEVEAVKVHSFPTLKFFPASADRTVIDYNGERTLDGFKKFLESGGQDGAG
T6 sequence (P07237 235-479 L355R): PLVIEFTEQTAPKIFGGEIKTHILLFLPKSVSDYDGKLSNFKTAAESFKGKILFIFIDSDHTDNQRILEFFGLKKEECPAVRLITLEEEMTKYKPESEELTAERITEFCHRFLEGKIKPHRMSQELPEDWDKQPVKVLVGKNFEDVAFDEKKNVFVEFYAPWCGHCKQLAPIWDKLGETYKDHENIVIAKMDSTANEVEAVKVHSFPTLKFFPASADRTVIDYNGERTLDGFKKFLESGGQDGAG
T5 sequence (P07237 235-480): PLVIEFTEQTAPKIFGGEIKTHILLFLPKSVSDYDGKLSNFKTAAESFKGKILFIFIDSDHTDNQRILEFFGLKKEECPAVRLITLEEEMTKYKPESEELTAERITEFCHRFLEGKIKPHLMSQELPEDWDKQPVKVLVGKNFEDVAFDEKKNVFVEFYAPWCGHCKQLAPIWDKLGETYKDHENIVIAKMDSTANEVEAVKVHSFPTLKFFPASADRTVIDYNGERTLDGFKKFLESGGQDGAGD
Chain of full-length human PDI (P07237 18-508): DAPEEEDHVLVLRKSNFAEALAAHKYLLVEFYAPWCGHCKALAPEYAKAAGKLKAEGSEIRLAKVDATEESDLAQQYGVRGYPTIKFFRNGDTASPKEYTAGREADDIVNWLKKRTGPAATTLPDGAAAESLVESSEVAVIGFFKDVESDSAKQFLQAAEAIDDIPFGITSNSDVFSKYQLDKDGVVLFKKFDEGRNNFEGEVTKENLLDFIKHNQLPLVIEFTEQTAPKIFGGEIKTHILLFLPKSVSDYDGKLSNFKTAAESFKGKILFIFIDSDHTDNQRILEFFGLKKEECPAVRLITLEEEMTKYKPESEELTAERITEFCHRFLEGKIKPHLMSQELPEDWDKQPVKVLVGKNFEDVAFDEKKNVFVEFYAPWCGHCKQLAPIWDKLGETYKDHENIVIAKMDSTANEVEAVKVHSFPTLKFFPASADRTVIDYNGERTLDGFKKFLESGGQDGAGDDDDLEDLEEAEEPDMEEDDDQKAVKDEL
T10 sequence (P09103 236-477): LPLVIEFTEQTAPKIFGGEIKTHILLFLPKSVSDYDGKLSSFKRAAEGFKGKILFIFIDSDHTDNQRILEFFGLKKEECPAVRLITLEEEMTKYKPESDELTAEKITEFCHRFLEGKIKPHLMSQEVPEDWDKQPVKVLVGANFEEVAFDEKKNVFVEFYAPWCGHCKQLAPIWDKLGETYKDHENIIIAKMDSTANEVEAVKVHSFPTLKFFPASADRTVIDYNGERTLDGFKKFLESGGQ
T7 sequence (P07237 235-369): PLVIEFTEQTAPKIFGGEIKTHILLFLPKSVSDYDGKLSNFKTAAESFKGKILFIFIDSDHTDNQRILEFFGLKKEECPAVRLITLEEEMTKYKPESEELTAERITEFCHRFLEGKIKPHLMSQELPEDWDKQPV
T9 sequence (P07237 235-479): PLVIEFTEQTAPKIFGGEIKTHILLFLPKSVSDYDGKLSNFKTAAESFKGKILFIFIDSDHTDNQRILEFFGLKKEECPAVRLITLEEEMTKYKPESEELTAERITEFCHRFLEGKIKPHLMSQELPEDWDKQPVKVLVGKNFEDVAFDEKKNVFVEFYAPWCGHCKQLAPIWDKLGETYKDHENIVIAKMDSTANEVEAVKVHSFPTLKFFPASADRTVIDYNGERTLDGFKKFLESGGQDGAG
T8 sequence (P09103 236-369): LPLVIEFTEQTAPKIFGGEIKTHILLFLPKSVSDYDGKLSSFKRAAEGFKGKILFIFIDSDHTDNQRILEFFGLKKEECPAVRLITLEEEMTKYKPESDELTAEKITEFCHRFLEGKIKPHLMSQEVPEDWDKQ

With `C[C@@H]1O[C@@H](OC[C@H]2O[C@@H](Oc3c(-c4ccc(O)c(O)c4)oc4cc(O)cc(O)c4c3=O)[C@H](O)[C@@H](O)[C@@H]2O)[C@H](O)[C@H](O)[C@H]1O` [rutin] as the molecule, how does the “decrease of binding to H354A mutant compared with wt MBP-PDI-b′xa′” value ([1]; ITC Kd 5.98 vs 2.39 μM) read?
Its value is “about 3 times”.

What about the Kd ([1]; ITC, 25 °C, H354A) of the same molecule?
Its Kd is 5.98 ± 1.08 µM.

And the “N (stoichiometry ratio)” value ([1]; ITC, 25 °C, H354A)?
The value was 0.72 ± 0.03.

And the ΔG ([1]; ITC, 25 °C, H354A)?
Its ΔG is -7.15 ± 0.86 kcal/mol.

What about the Kd [2] of the same molecule?
Its Kd is 4.48 ± 0.58 µM.

What about the “N (stoichiometry ratio)” value [2] of the same molecule?
Its value is 1.21 ± 0.02.

And the ΔG [2]?
Its ΔG is -7.31 ± 0.45 kcal/mol.

And the Kd [3]?
Its Kd is 2.29 ± 0.36 µM.

And the “N (stoichiometry ratio)” value [3]?
Its value is 0.86 ± 0.02.

And the ΔG [3]?
The ΔG was -7.72 ± 0.31 kcal/mol.

What about the Kd [4] of the same molecule?
Its Kd is 4.1 ± 0.74 µM.

And the “N (stoichiometry ratio)” value [4]?
Its value is 1.18 ± 0.03.

What about the ΔG [4] of the same molecule?
Its ΔG is -7.39 ± 0.49 kcal/mol.

And the Kd [5]?
Its Kd is 2.31 µM and 2.39 µM.

And the Kd [6]?
The Kd was 3.5 ± 0.39 µM.

And the “N (stoichiometry ratio)” value [6]?
Its value is 1.93 ± 0.03.

What about the ΔG [6] of the same molecule?
Its ΔG is -7.46 ± 0.23 kcal/mol.

What about the IC50 [7] of the same molecule?
The IC50 was 18.7 µM.

What about the IC50 [8] of the same molecule?
The IC50 was 15.7 µM.

What about the IC50 [9] of the same molecule?
Its IC50 is 31.1 µM.

What about the IC50 [10] of the same molecule?
Its IC50 is 28.8 µM.

What about the IC50 [11] of the same molecule?
The IC50 was 26.3 µM.

What about the “inhibition of ERp72” value [12] of the same molecule?
The value was “did not inhibit”.

What about the “IC50 of inhibition of PDI activities” value [13] of the same molecule?
The value was “micromolar range”.

And the “reversal of inhibitory activities on PDI in vivo” value ([14]; mouse model, infusion of PDI b′x fragment)?
The value was “rapidly reversed”.

And the “fibrin generation in vivo” value [14, 15]?
Its value is “blocked”.

And the “platelet aggregation in vivo” value [14, 15]?
The value was “blocked”.
